Activity calls are given as the source filed them. The rule behind the calls is not given here.
Legend:
DLD-1 [1] = assay: Reduction in KLF5 protein expression in human DLD1 cells at 10 uM by gel electrophoresis and autoradiography; type: functional, cell-based
SW-620 = assay: Reduction in KLF5 protein expression in human SW620 cells at 10 uM by gel electrophoresis and autoradiography; type: functional, cell-based
HT-29 = assay: Reduction in KLF5 protein expression in human HT-29 cells at 10 uM by gel electrophoresis and autoradiography; type: functional, cell-based
HCT-116 = assay: Reduction in KLF5 protein expression in human HCT116 cells at 10 uM by gel electrophoresis and autoradiography; type: functional, cell-based
DLD-1 [2] = assay: Cell cycle arrest in human DLD1 cells assessed as accumulation at S phase accumulation after 48 hrs (reference value: 8.06 +/- 1.35%); type: functional
DLD-1 [3] = assay: Cell cycle arrest in human DLD1 cells assessed as accumulation at S phase accumulation after 24 hrs (reference value: 18.05 +/- 1.13%); type: functional
DLD-1 [4] = assay: Cell cycle arrest in human DLD1 cells assessed as accumulation at subG1 phase accumulation after 24 hrs (reference value: 0.81 +/- 0.13%); type: functional
DLD-1 [5] = assay: Cell cycle arrest in human DLD1 cells assessed as accumulation at G2/M phase accumulation after 48 hrs (reference value: 58.17 +/- 4.4%); type: functional
DLD-1 [6] = assay: Cell cycle arrest in human DLD1 cells assessed as accumulation at G1 phase accumulation after 24 hrs (reference value: 34.78 +/- 2.58%); type: functional
IEC-6 = assay: Growth inhibition of rat IEC-6 cells relative to control; type: cell-based
DLD-1 [7] = assay: Cell cycle arrest in human DLD1 cells assessed as accumulation at G1 phase accumulation after 48 hrs (reference value: 32.63 +/- 3.18%); type: functional
DLD-1 [8] = assay: Cell cycle arrest in human DLD1 cells assessed as accumulation at G2/M phase accumulation after 24 hrs (reference value: 46.58 +/- 3.73%); type: functional
DLD-1 [9] = assay: Cell cycle arrest in human DLD1 cells assessed as accumulation at subG1 phase accumulation after 48 hrs (reference value: 1.27 +/- 0.15%); type: functional

Row | Compound | Activity (DLD-1 [1]) | Activity (SW-620) | Activity (HT-29) | Activity (HCT-116) | Activity (DLD-1 [2]) | Activity (DLD-1 [3]) | Activity (DLD-1 [4]) | Activity (DLD-1 [5]) | Activity (DLD-1 [6]) | growth inhibition (GI) (IEC-6) | Activity (DLD-1 [7]) | Activity (DLD-1 [8]) | Activity (DLD-1 [9])
1 | CN(C(=O)CNC(=O)/C=C/c1cccc([N+](=O)[O-])c1)C1CCS(=O)(=O)C1 (stereo not given) | inactive | inactive | inactive | inactive |  |  |  |  |  |  |  |  | 
2 | CN(C(=O)CNC(=O)/C=C/c1cccc(Cl)c1)C1CCS(=O)(=O)C1 (stereo not given) | inactive | inactive | inactive | inactive |  |  |  |  |  |  |  |  | 
3 | CN(C(=O)COC(=O)/C=C/c1cccc([N+](=O)[O-])c1)C1CCS(=O)(=O)C1 (stereo not given) | inactive | inactive | inactive | inactive |  |  |  |  |  |  |  |  | 
4 | CN(C(=O)CNC(=O)/C=C/c1cccc(Cl)c1)C1CCS(=O)(=O)CC1 | Active | Active | Active | Active | 19.74% | 18.47% | 7.82% | 39.36% | 44.15% | < 50% | 31.58% | 29.81% | 9.63%
